Laboratory results reported in US8993542B2, “Methods of treating viral infections” (priority 2008, dated 2015).

Test system: CEM T-lymphocytic cells or MAGI-CCR5 cells
Experiment: Cytotoxicity of two-drug combinations
Details: 10 μM highest test concentration
Procedure: The anti-HIV-1 activity of CMX157 is evaluated in two-drug combination studies with twenty-four different FDA-approved anti-HIV inhibitors. Each two-drug combination is tested three times in CEM T-lymphocytic cells or MAGI-CCR5 cells acutely infected with the laboratory-adapted strain HIV-1IIIB or HIV-1Ba-L, respectively. Viral growth/inhibition is evaluated by measuring virus-induced cytopathic effects (CPE) in CEM cells or by β-galactosidase reporter gene induction in MAGI-CCR5 cells at the experimental endpoint. The cytotoxicity of each two-drug combination is also evaluated in parallel with the antiviral evaluations. The concentrations of CMX157 used in these evaluations are selected in order to test a broad range of concentrations and to provide as complete a dose response curve as possible under the limitations of eight total concentrations. […] The “positive antagonism control” of d4T (stavudine) in combination with RBV was tested in parallel with each of the assays that were performed. Analysis of drug interactions for each of the two-drug combinations is performed using the Prichard and Shipman MacSynergy II three-dimensional model for statistical evaluation of combination assays.

In the case of `CCCCCCCCCCCCCCCCOCCCOP(=O)(O)CO[C@H](C)Cn1cnc2c(N)ncnc21` [CMX157, Hexadecyloxypropyl-9-R-[2-(Phosphonomethoxy)Propyl]-Adenine], the synergistic cytotoxicity is reported as “no evidence of synergistic cytotoxicity”.
